# From the supplement of paper PMC7695840
# Counter-ions that a name gives are not always drawn.
# Legend:
# [1] = test system: Staphylococcus aureus MW2 (mecA+); assay: IC50 (growth, competition assay); details: cefoxitin: subinhibitory
# How it was run: (§1)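 Pre-induced, 1:1-mixed fluorescent S. aureus MW2 mecA+ and ΔmecA strains were grown 20 h at 37 °C, 90% humidity, unshaken, in LB with a daily-set subinhibitory cefoxitin dose, in 1536-well plates. Compounds were given on five- or nine-point 2-fold gradients, in two dye-swapped replicates. DsRed (540/590) and GFP (485/520) were scaled per plate between single-strain control medians, with No Treatment then set to 0.5. Per-strain IC50 was the dose halving the No Treatment signal, or the maximal signal.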
# [2] = test system: Staphylococcus aureus MW2 delta-mecA (mecA-); assay: IC50 (growth, competition assay); details: cefoxitin: subinhibitory
# How it was run: as §1
Compound,IC50 ([1]; fluorescent label: DsRed) [µM],IC50 ([1]; fluorescent label: GFP) [µM],IC50 ([2]; fluorescent label: DsRed) [µM],IC50 ([2]; fluorescent label: GFP) [µM]
O=c1c(O)c(-c2ccc(O)c(O)c2)oc2cc(O)cc(O)c12 [Quercetin dihydrate (Sophoretin)],58.2,53.4,18.7,11.1
O=c1c(O)c(-c2ccc(O)c(O)c2)oc2cc(O)cc(O)c12 [Quercetin dihydrate],56.9,55.7,18.4,10.4
CN(C)C(=S)SSC(=S)N(C)C [REZIFILM],33.4,63.6,18.2,23.6
CCCCCCCCCCCCC[N+](C)(C)Cc1ccccc1 [ROCCAL],< 9.85,< 9.85,< 9.85,< 9.85
CO/N=C(\C(=O)N[C@@H]1C(=O)N2C(C(=O)O)=C(CSc3nc(=O)c(O)nn3C)CS[C@H]12)c1csc(N)n1 [ROCEPHIN],> 150,> 150,< 9.85,< 9.85
C=C1c2cccc(O)c2C(=O)C2=C(O)[C@]3(O)C(=O)C(C(N)=O)=C(O)[C@@H](N(C)C)[C@@H]3[C@@H](O)[C@H]12 [RONDOMYCIN],< 9.85,< 9.85,< 9.85,< 9.85
C=C1C(=O)[C@]23[C@H](CC[C@@H]1[C@@H]2O)[C@]12CO[C@@]3(O)[C@H](O)[C@H]1C(C)(C)CC[C@@H]2O [RUBESCENSIN A],36.3,84.5,17.9,17.2
CC[C@H]1OC(=O)[C@H](C)[C@@H](O[C@H]2C[C@@](C)(OC)[C@@H](O)[C@H](C)O2)[C@H](C)[C@@H](O[C@@H]2O[C@H](C)C[C@H](N(C)C)[C@H]2O)[C@](C)(O)C[C@@H](C)/C(=N\OCOCCOC)[C@H](C)[C@@H](O)[C@]1(C)O [RULIDE],< 9.85,< 9.85,< 9.85,< 9.85
CC[C@@]1([C@H]2O[C@H]([C@H]3O[C@@](O)(CO)[C@H](C)C[C@@H]3C)C[C@H]2C)CC[C@H]([C@@]2(C)CC[C@]3(C[C@H](O)[C@@H](C)[C@@H]([C@H](C)[C@H](OC)[C@@H](C)C(=O)O)O3)O2)O1 [RUMENSIN],< 9.85,< 9.85,< 9.85,12.5
FC(F)(F)c1ccc(Nc2nc3ccc(Oc4ccnc(-c5ncc(C(F)(F)F)[nH]5)c4)cc3[nH]2)cc1 [Raf265 derivative],19.6,23.4,< 9.85,< 9.85
C=C[C@]1(C)C[C@@H](OC(=O)CS[C@@H]2C[C@H]3CC[C@@H](C2)N3C)[C@]2(C)[C@H](C)CC[C@]3(CCC(=O)[C@H]32)[C@@H](C)[C@@H]1O [Retapamulin],< 9.85,< 9.85,< 9.85,< 9.85
Cc1cc2nc3c(=O)[nH]c(=O)nc-3n(C[C@H](O)[C@H](O)[C@H](O)CO)c2cc1C [Riboflavin (Vitamin B2)],> 150,> 150,> 150,> 150
CO[C@H]1/C=C/O[C@@]2(C)Oc3c(C)c(O)c4c(c3C2=O)C2=NC3(CCN(CC(C)C)CC3)NC2=C(NC(=O)/C(C)=C\C=C\[C@H](C)[C@H](O)[C@@H](C)[C@@H](O)[C@@H](C)[C@H](OC(C)=O)[C@@H]1C)C4=O [Rifabutin],< 0.498,< 0.498,< 0.498,< 0.498
CO[C@H]1/C=C/O[C@@]2(C)Oc3c(C)c(O)c4c(O)c(c(/C=N/N5CCN(C6CCCC6)CC5)c(O)c4c3C2=O)NC(=O)/C(C)=C\C=C\[C@H](C)[C@H](O)[C@@H](C)[C@@H](O)[C@@H](C)[C@H](OC(C)=O)[C@@H]1C [Rifapentine],< 0.498,< 0.498,< 0.498,< 0.498
CO[C@H]1/C=C/O[C@@]2(C)Oc3c(C)c(O)c4c(O)c(c5c(nc6cc(C)ccn65)c4c3C2=O)NC(=O)/C(C)=C\C=C\[C@H](C)[C@H](O)[C@@H](C)[C@@H](O)[C@@H](C)[C@H](OC(C)=O)[C@@H]1C [Rifaximin (Xifaxan)],< 0.498,< 0.498,< 0.498,< 0.498
Cc1nc2sccn2c(=O)c1CCN1CCC(=C(c2ccc(F)cc2)c2ccc(F)cc2)CC1 [Ritanserin],57.5,56.9,17.3,29
CC[C@H]1OC(=O)[C@H](C)[C@@H](O[C@H]2C[C@@](C)(OC)[C@@H](O)[C@H](C)O2)[C@H](C)[C@@H](O[C@@H]2O[C@H](C)C[C@H](N(C)C)[C@H]2O)[C@](C)(O)C[C@@H](C)/C(=N\OCOCCOC)[C@H](C)[C@@H](O)[C@]1(C)O [Roxithromycin (Roxl-150)],4.26,3.99,< 0.498,< 0.498
Cc1cncc(CN2CCC(=C3c4ccc(Cl)cc4CCc4cccnc43)CC2)c1 [Rupatadine Fumarate],74.3,112,26.6,20.2
COC(=O)C1=C(C)NC(C)=C(C(=O)OCCCN2CCC(c3ccccc3)(c3ccccc3)CC2)[C@H]1c1cccc([N+](=O)[O-])c1 [S-(+)-Niguldipine hydrochloride],< 9.85,11.4,< 9.85,< 9.85
O=C(O)c1cn(-c2ccc(F)cc2)c2cc(N3CCNCC3)c(F)cc2c1=O [SARAFLOX],< 9.85,< 9.85,< 9.85,< 9.85
NS(=O)(=O)c1ccc(-n2nc(C(F)(F)F)cc2-c2ccc(Cl)cc2)cc1 [SC-236],94.1,97.3,26.4,16.3
C=C[C@](C)(O)CC[C@@H]1[C@@]2(C)CCCC(C)(C)[C@@H]2CC[C@@]1(C)O [SCLAREOL],31.4,28.9,< 9.85,< 9.85
OC1(c2ccc(Cl)c(C(F)(F)F)c2)CCN(CCCC(c2ccc(F)cc2)c2ccc(F)cc2)CC1 [SEMAP],29.7,27.3,< 9.85,< 9.85
N[C@@H]1CONC1=O [SEROMYCIN],> 150,110,98.8,91.5
CN(CC(=O)N(Cc1ccc(C2CCCCC2)cc1)c1ccc(C(=O)O)cc1)S(=O)(=O)c1c(F)c(F)c(F)c(F)c1F [SH-4-54],< 9.85,11.5,< 9.85,< 9.85
CC(=O)Oc1ccc(Cl)c2cccnc12 [SILITAL],17.2,29.8,15.6,< 9.85
O=C1c2ccccc2-c2nc3nonc3nc21 [SMER 3],65.9,> 150,20.4,< 9.85
